Experimental data: publication PMC7344389, “Discovery of Anti-Amoebic Inhibitors from Screening the MMV Pandemic Response Box on Balamuthia mandrillaris, Naegleria fowleri, and Acanthamoeba castellanii” (Pathogens, 2020)
Read-outs that look alike come from different tables or passages of the source.

Experiments:
Format in all cases: cell-based
[1] = system: A549 human lung carcinoma cells; experiment: MTS cytotoxicity counter-screen of reconfirmed hits
Procedure: Cytotoxicity of the reconfirmed hits was determined by using the CellTiter 96® AQueous One Solution Cell Proliferation Assay (Promega, Madison, WI) on A549 human lung carcinoma cells. A549 cells were seeded at a concentration of 1.6 × 10^4 cells/mL in 96-well tissue culture plates (Corning, NY, USA), in the presence of serially diluted active hits against B. mandrillaris, N. fowleri, or A. castellanii. Positive control wells contained cells and media; negative control wells contained 0.1% DMSO. Cells were grown in F12K medium supplemented with 10% FBS and 1% gentamycin (all supplied from Fisher Scientific, Atlanta, GA, USA). The inhibitor concentration started at 10 µM and was diluted in doubling dilutions to assess cytotoxicity in comparison to the respective free-living amoeba. Total volume of each well was 100 µL and plates were incubated at 37 °C, 5% CO2 for 72 h. Next, 4 h before the time-point, 20 µL of MTS (Promega, Madison, WI, USA) was added to each well. Inhibition of A549 growth was assessed at the 72 h time-point measuring the optical density (OD) values at 490 nm using a SpectraMax I3X plate reader (Molecular Devices, Sunnyvale, CA, USA). Curve fitting using non-linear regression was carried out using the average of replicates and the Levenberg–Marquardt algorithm, using DMSO as the normalization control, as defined in CDD Vault (Burlingame, CA, USA).

[2] = system: Naegleria fowleri trophozoites; experiment: CellTiter-Glo 2.0 trophocidal assay, N. fowleri
Procedure: Pathogenic Naegleria fowleri (ATCC 30215), a clinical isolate obtained from a child in Adelaide, Australia, that died of PAM in 1969 was previously purchased from the American Type Culture Collection (ATCC). Trophozoites were routinely grown axenically at 34 °C in Nelson’s complete medium (NCM) in non-vented 75 cm^2 tissue culture flasks (Olympus, El Cajon, CA, USA), until the cells were 80–90% confluent. For sub-culturing, cells were placed on ice to detach the cells from the culture flasks. The cells were collected by centrifugation at 4000 rpm at 4 °C. Complete NCM media is produced by the addition of 10% FBS and 125 μg of penicillin/streptomycin antibiotics.
The trophocidal activity of compounds was assessed using the CellTiter-Glo 2.0 luminescent viability assay (Promega, Madison, WI, USA), as previously described. Trophozoites were routinely cultured as described above and only logarithmic trophozoites were used. In brief, B. mandrillaris, N. fowleri, or A. castellanii trophozoites cultured in their corresponding media were seeded at 16,000, 3000, or 1440 cells/well into white 96-well plates (Costar 3370), respectively. Initially all compounds were assessed in a single-point drug screen at 10 and 1 μM, as previously described. […] Control wells were supplemented with 0.1% (10 μM screening plate) or 0.01% (1 μM screening plate) DMSO, as the negative controls, or 12.5 μM of chlorhexidine, as the positive control. Following the single-point assays at 10 and 1 µM, we prioritized compounds for progression to IC50 determinations. […] We used this process to reduce the number of potential false positives. Drugs were cherry-picked, dissolved in the media specific to each parasite, and assessed in twofold serial dilutions from the highest concentration of 10 μM. All assays were incubated at each of the parasites’ representative growth temperatures, described above, for 72 h. At the 72 h time point, 25 μL of CellTiter-Glo 2.0 reagent was added to all wells of the 96-well plates using the Biomek NX^P automated workstation. The plates were protected from light and contents were mixed using an orbital shaker at 300 rpm at room temperature for 2 min to induce cell lysis. After shaking, the plates were equilibrated at room temperature for 10 min to stabilize the luminescent signal. The adenosine triphosphate (ATP) luminescent signal (relative light units; RLUs) was measured at 490 nm with a SpectraMax I3X plate reader (Molecular Devices, Sunnyvale, CA, USA). Drug inhibitory concentration (IC50) curves were generated using total ATP RLUs, where controls were calculated as the average of replicates using the Levenberg–Marquardt algorithm, using DMSO as the normalization control, as defined in Collaborative Drug Discovery Inc. (CDD) Vault (Burlingame, CA, USA). Values reported are from a minimum of two biological replicates with standard deviations.

[3] = system: Acanthamoeba castellanii trophozoites; experiment: CellTiter-Glo 2.0 trophocidal assay, A. castellanii
Procedure: This isolate was also purchased from ATCC. Trophozoites were routinely grown axenically at 27 °C in Protease Peptone-Glucose Media (PG) in non-vented 75 cm^2 tissue culture flasks (Olympus, El Cajon, CA, USA), until the cells were 80–90% confluent. For sub-culturing, cells were mechanically harvested to detach the cells from the culture flasks. The cells were collected by centrifugation at 4000 rpm at 4 °C.
The trophocidal activity of compounds was assessed using the CellTiter-Glo 2.0 luminescent viability assay (Promega, Madison, WI, USA), as previously described. Trophozoites were routinely cultured as described above and only logarithmic trophozoites were used. […] Initially all compounds were assessed in a single-point drug screen at 10 and 1 μM, as previously described. […] We used this process to reduce the number of potential false positives. Drugs were cherry-picked, dissolved in the media specific to each parasite, and assessed in twofold serial dilutions from the highest concentration of 10 μM. All assays were incubated at each of the parasites’ representative growth temperatures, described above, for 72 h. At the 72 h time point, 25 μL of CellTiter-Glo 2.0 reagent was added to all wells of the 96-well plates using the Biomek NX^P automated workstation. The plates were protected from light and contents were mixed using an orbital shaker at 300 rpm at room temperature for 2 min to induce cell lysis. After shaking, the plates were equilibrated at room temperature for 10 min to stabilize the luminescent signal. The adenosine triphosphate (ATP) luminescent signal (relative light units; RLUs) was measured at 490 nm with a SpectraMax I3X plate reader (Molecular Devices, Sunnyvale, CA, USA). Drug inhibitory concentration (IC50) curves were generated using total ATP RLUs, where controls were calculated as the average of replicates using the Levenberg–Marquardt algorithm, using DMSO as the normalization control, as defined in Collaborative Drug Discovery Inc. (CDD) Vault (Burlingame, CA, USA). Values reported are from a minimum of two biological replicates with standard deviations.

[4] = MTS assay, 72 h, doubling dilutions from 10 µM, read-out: A549 Mean IC50
[5] = CTG method, 72 h, duplicate twofold serial dilutions from 10 µM, mean ± SD; read-out: N. fowleri Mean IC50 (µM) ± SD
[6] = Naegleria fowleri, 72 h, CTG method, 72 h, duplicate twofold serial dilutions from 10 µM, mean ± SD; read-out: N. fowleri Mean IC50 (µM) ± SD
[7] = Homo sapiens, A549, MTS assay, 72 h, doubling dilutions from 10 µM, read-out: A549 Mean IC50

**Q.** With `C[C@H](c1cccc2ccccc12)N(C)Cc1ccccc1` [MMV1782221] as the molecule, how does the IC50 [1, 4] read?
**A.** The IC50 was > 10 µM.

**Q.** For `CN1c2ccc(Cl)cc2N(c2ccccc2)C(=O)c2cn(Cc3ccc(CN4CCOCC4)cc3)nc21` [MMV1782222], which IC50 [2, 5] is on record?
**A.** Its IC50 is 5.4 µM.

**Q.** What about the IC50 [1, 4] of the same molecule?
**A.** Its IC50 is > 10 µM.

**Q.** With `N#Cc1c(F)c(Cl)c(NCc2ccccc2)c(C#N)c1F` [MMV1582496] as the molecule, how does the IC50 ([3]; CTG method, 72 h, duplicate twofold serial dilutions from 10 µM, mean ± SD) read?
**A.** Its IC50 is 0.61 ± 0.35 µM.

**Q.** And the “potency against A. castellanii, in words” value ([3]; dose-response, CTG)?
**A.** The value was “nanomolar potency”.

**Q.** What about the IC50 [1, 4] of the same molecule?
**A.** The IC50 was > 10 µM.

**Q.** Which IC50 [1, 4] does the source give for `Cc1cccc(C)c1C(=O)Nc1nc(-c2ccccn2)cc2ccccc12` [MMV1581558] here?
**A.** The IC50 was > 10 µM.

**Q.** `CCOC(=O)Nc1cc(NC(C)CC(C)CN(CC)CC)c2nc(-c3ccccc3)c(-c3ccccc3)nc2n1` (stereo not drawn) [MMV1633967] was tested. Which IC50 [2, 5] did it give?
**A.** Its IC50 is 8.2 ± 1 µM.

**Q.** What about the IC50 [1, 4] of the same molecule?
**A.** The IC50 was > 10 µM.

**Q.** What does the source list for `N#C/C(=C1/SC[C@@H](c2ccc(Cl)cc2Cl)S1)n1ccnc1` [Luliconazole]?
**A.** IC50 [2, 6]: 0.02 ± 0.01 µM; Selectivity Index (A549 IC50/N. fowleri IC50) ([2]; SI = (IC50 A549)/(IC50 Amoeba)): ≥556; Selectivity Index (A549 IC50/N. fowleri IC50) ([2]; SI = (IC50 A549)/(IC50 Amoeba); listed as luliconazole): ≥ 10; potency against N. fowleri, in words ([2]; dose-response, CTG): nanomolar potency; IC50 [1, 7]: > 10 µM

**Q.** For `CC[C@H]1OC(=O)[C@H](C)[C@@H](O[C@H]2C[C@@](C)(OC)[C@@H](O)[C@H](C)O2)[C@H](C)[C@@H](O[C@@H]2O[C@H](C)C[C@H](N(C)C)[C@H]2O)[C@](C)(O)C[C@@H](C)C(=O)[C@H](C)[C@@H](O)[C@]1(C)O` [Erythromycin], which IC50 [2, 6] is on record?
**A.** Its IC50 is 0.24 ± 0.02 µM.

**Q.** What about the “Selectivity Index (A549 IC50/N. fowleri IC50)” value (shortened to “Selectivity Index”) ([2]; SI = (IC50 A549)/(IC50 Amoeba)) of the same molecule?
**A.** Its value is ≥42.6.

**Q.** What about the “Selectivity Index” value ([2]; SI = (IC50 A549)/(IC50 Amoeba); listed as erythromycin) of the same molecule?
**A.** Its value is ≥ 10.

**Q.** And the “potency against N. fowleri, in words” value ([2]; dose-response, CTG)?
**A.** The value was “nanomolar potency”.

**Q.** What about the IC50 [1, 7] of the same molecule?
**A.** The IC50 was > 10 µM.

**Q.** Which IC50 ([2]; Naegleria fowleri; CTG method, 72 h, duplicate twofold serial dilutions from 10 µM, mean ± SD; read-out: N. fowleri Mean IC50 (µM) ± SD) does the source give for `Nc1nc(F)nc2c1ncn2[C@@H]1O[C@H](CO)[C@@H](O)[C@@H]1O` [Fludarabine] here?
**A.** Its IC50 is 0.11 ± 0.03 µM.

**Q.** And the “Selectivity Index” value ([2]; SI = (IC50 A549)/(IC50 Amoeba))?
**A.** The value was <2.83.

**Q.** And the “potency against N. fowleri, in words” value ([2]; dose-response, CTG)?
**A.** The value was “nanomolar potency”.

**Q.** What about the IC50 ([1]; Homo sapiens, A549, 72 h, read-out: A549 Mean IC50 (µM)) of the same molecule?
**A.** The IC50 was < 0.31 µM.

**Q.** How did the IC50 [2, 5] turn out when `Oc1c(C(Nc2nc3ccccc3s2)c2ccc(OC(F)F)cc2)ccc2cccnc12` (stereo not drawn) [MMV019724] was run?
**A.** The IC50 was 6 ± 0.7 µM.

**Q.** What about the IC50 [1, 4] of the same molecule?
**A.** The IC50 was 6.2 µM.

**Q.** `NC(=S)N/N=C/c1ncccc1N` [Triapine] was tested. Which IC50 [2, 6] did it give?
**A.** The IC50 was 4 ± 0.1 µM.

**Q.** And the “Selectivity Index” value ([2]; SI = (IC50 A549)/(IC50 Amoeba))?
**A.** Its value is 0.88.

**Q.** And the IC50 [1, 7]?
**A.** The IC50 was 3.5 µM.

**Q.** For `C=CCN(C(=O)OCc1ccc([N+](=O)[O-])cc1)C1CCN(CC[C@](C)(CN(C)S(=O)(=O)c2ccccc2)c2ccccc2)CC1` [MMV1782214], which IC50 [2, 5] is on record?
**A.** The IC50 was 7.9 µM.

**Q.** And the IC50 [1, 4]?
**A.** The IC50 was > 10 µM.

**Q.** What does the source list for `Cn1cncc1[C@@](N)(c1ccc(Cl)cc1)c1ccc2c(c1)c(-c1cccc(Cl)c1)cc(=O)n2C` [Tipifarnib]?
**A.** IC50 ([2]; Naegleria fowleri, 72 h, read-out: N. fowleri Mean IC50 (µM) ± SD): 1.23 ± 0.27 µM; Selectivity Index (A549 IC50/N. fowleri IC50) ([2]; SI = (IC50 A549)/(IC50 Amoeba)): 6.50; IC50 [1, 7]: 8 µM

**Q.** `CC[C@@]1(O)C(=O)OCc2c1cc1n(c2=O)Cc2cc3c([N+](=O)[O-])cccc3nc2-1` [Rubitecan] was tested. Which IC50 [2, 6] did it give?
**A.** Its IC50 is 2.3 ± 0.2 µM.

**Q.** What about the “Selectivity Index” value ([2]; SI = (IC50 A549)/(IC50 Amoeba)) of the same molecule?
**A.** Its value is 0.20.

**Q.** And the IC50 [1, 7]?
**A.** The IC50 was 0.47 µM.
